Reference: paper PMC5386260, “Acute development of cortical porosity and endosteal naïve bone formation from the daily but not weekly short-term administration of PTH in rabbit” (PLoS ONE, 2017)
Like-named read-outs stand apart in the source and are kept apart here.

Experiment: Plasma TPTD concentration and pharmacokinetics (Rat PTH IRMA Kit, non-compartmental model)
Assay type: in vivo, rabbit
Details: for level at 0.5 h / level at 1 h / level at 2 h / level at 5 min / level at 0.25 h: female, New Zealand White (Kbl:NZW), rabbit, plasma, sc, IRMA, mean; for AUC / Cmax / Tmax / half-life: in vivo; for half-life: read-out: T1/2 (elimination half-life) of plasma TPTD (converted)
Description: Seventeen female New Zealand White rabbits (Kbl:NZW) were purchased from Kitayama Labs (Nagano, Japan) and were allowed to acclimatize with free access to water and food for 6 days before use. Throughout the experimental study, the animals were housed individually under a 12-h light/dark cycle with free access to water, but their food intake was restricted to 120g /day (LRC4, standard diet for rabbits; Oriental Yeast, Tokyo, Japan). The animals at 6 months of age were divided into 5 groups and were subcutaneously injected with 20 or 40 μg/kg of TPTD once-daily (D20 group [n = 3] and D40 group [n = 3], 140 or 280 μg/kg of TPTD once-weekly (W140 group [n = 3] and W280 group [n = 4]) for four weeks (Table 1). For the high-dose administration of TPTD, the dosage in once-daily treatment was set at 40 μg/kg/day based on a previous study, while the dosage of once-weekly TPTD treatment was set at 280 μg/kg/week; thus, the cumulative dose of TPTD each week was the same with the two treatment frequencies. In the W140 and W280 groups, saline was administered every day, except for the days on which TPTD was administered. Saline injections were administered to control animals (C group, n = 4) once daily and to each group as a vehicle.
[…] The samples were centrifuged at 1600 x g, at 4°C for 10 minutes and plasma samples were collected in order to measure the concentration of TPTD. […]
Teriparatide acetate was synthesized at Asahi Kasei Pharma Corporation (Tokyo, Japan) and was used as a standard substance. The teriparatide acetate concentration in the rabbit plasma was quantified using a Rat PTH IRMA Kit (Immutopics, Inc., San Clemente, CA) according to the manufacturer’s instructions. The pharmacokinetic parameters were calculated using a non-compartmental model (Phoenix WinNonlin; Pharsight, Mountain View, CA).

[1] = 20 ug/kg, rabbit plasma, D20 (20 μg/kg sc once-daily), n=3, mean ± SD
[2] = 40 ug/kg, rabbit plasma, D40 (40 μg/kg sc once-daily), n=3, mean ± SD
[3] = 140 ug/kg, rabbit plasma, W140 (140 μg/kg sc once-weekly), n=3, mean ± SD
[4] = 280 ug/kg, rabbit plasma, W280 (280 μg/kg sc once-weekly), n=4, mean ± SD

CC[C@H](C)[C@H](NC(=O)[C@H](CCC(=O)O)NC(=O)[C@H](CO)NC(=O)[C@@H](NC(=O)[C@@H](N)CO)C(C)C)C(=O)N[C@@H](CCC(N)=O)C(=O)N[C@@H](CC(C)C)C(=O)N[C@@H](CCSC)C(=O)N[C@@H](Cc1cnc[nH]1)C(=O)N[C@@H](CC(N)=O)C(=O)N[C@@H](CC(C)C)C(=O)NCC(=O)N[C@@H](CCCCN)C(=O)N[C@@H](Cc1cnc[nH]1)C(=O)N[C@@H](CC(C)C)C(=O)N[C@@H](CC(N)=O)C(=O)N[C@@H](CO)C(=O)N[C@@H](CCSC)C(=O)N[C@@H](CCC(=O)O)C(=O)N[C@@H](CCCN=C(N)N)C(=O)N[C@H](C(=O)N[C@@H](CCC(=O)O)C(=O)N[C@@H](Cc1c[nH]c2ccccc12)C(=O)N[C@@H](CC(C)C)C(=O)N[C@@H](CCCN=C(N)N)C(=O)N[C@@H](CCCCN)C(=O)N[C@@H](CCCCN)C(=O)N[C@@H](CC(C)C)C(=O)N[C@@H](CCC(N)=O)C(=O)N[C@@H](CC(=O)O)C(=O)N[C@H](C(=O)N[C@@H](Cc1cnc[nH]1)C(=O)N[C@@H](CC(N)=O)C(=O)N[C@@H](Cc1ccccc1)C(=O)O)C(C)C)C(C)C [TPTD, Teriparatide]
level at 0.5 h (140 ug/kg, Day 22, 30 min, W140 (140 μg/kg sc once-weekly), n=3): 202 ng/mL | level at 1 h (140 ug/kg, Day 22, 1 hour, W140 (140 μg/kg sc once-weekly), n=3): 147 ng/mL | level at 2 h (140 ug/kg, Day 22, 2 hour, W140 (140 μg/kg sc once-weekly), n=3): 37.8 ng/mL | level at 5 min (280 ug/kg, Day 1, 5 min, W280 (280 μg/kg sc once-weekly), n=4): 60.6 ng/mL | level at 0.25 h (280 ug/kg, Day 1, 15 min, W280 (280 μg/kg sc once-weekly), n=4): 177 ng/mL | level at 0.5 h (280 ug/kg, Day 1, 30 min, W280 (280 μg/kg sc once-weekly), n=4): 295 ng/mL | level at 1 h (280 ug/kg, Day 1, 1 hour, W280 (280 μg/kg sc once-weekly), n=4): 255 ng/mL | level at 2 h (280 ug/kg, Day 1, 2 hour, W280 (280 μg/kg sc once-weekly), n=4): 87.4 ng/mL | level at 5 min (280 ug/kg, Day 22, 5 min, W280 (280 μg/kg sc once-weekly), n=4): 67.7 ng/mL | level at 0.25 h (280 ug/kg, Day 22, 15 min, W280 (280 μg/kg sc once-weekly), n=4): 232 ng/mL | level at 0.5 h (280 ug/kg, Day 22, 30 min, W280 (280 μg/kg sc once-weekly), n=4): 356 ng/mL | level at 1 h (280 ug/kg, Day 22, 1 hour, W280 (280 μg/kg sc once-weekly), n=4): 280 ng/mL | level at 2 h (280 ug/kg, Day 22, 2 hour, W280 (280 μg/kg sc once-weekly), n=4): 62.4 ng/mL | AUC [1]: 21.1 ± 3.67 ng·h/mL | Cmax [1]: 19.8 ± 5.67 ng/mL | Tmax [1]: 30 min | half-life (20 ug/kg, rabbit plasma, D20 (20 μg/kg sc once-daily), n=3, non-compartmental, mean ± SD): 26.4 ± 9 min | AUC [2]: 46.8 ± 10.7 ng·h/mL | Cmax [2]: 34.3 ± 8.19 ng/mL | Tmax [2]: 30 min | half-life (40 ug/kg, rabbit plasma, D40 (40 μg/kg sc once-daily), n=3, non-compartmental, mean ± SD): 55.8 ± 19.2 min | AUC [3]: 188 ± 35.5 ng·h/mL | Cmax [3]: 133 ± 28 ng/mL | Tmax [3]: 40.2 ± 17.4 min | half-life (140 ug/kg, rabbit plasma, W140 (140 μg/kg sc once-weekly), n=3, non-compartmental, mean ± SD): 55.8 ± 9.6 min | AUC [4]: 390 ± 75.6 ng·h/mL | Cmax [4]: 315 ± 67.8 ng/mL | Tmax [4]: 45 ± 17.4 min | half-life (280 ug/kg, rabbit plasma, W280 (280 μg/kg sc once-weekly), n=4, non-compartmental, mean ± SD): 41.4 ± 16.2 min | Tmax post-dose (rabbit plasma, D20 (20 μg/kg sc once-daily)): 30 min | Tmax post-dose (rabbit plasma, D40 (40 μg/kg sc once-daily)): 30 min | estimated Tmax post-dose (rabbit plasma, W140 (140 μg/kg sc once-weekly)): 40 min | T1/2 (elimination half-life) of plasma TPTD (rabbit plasma, W140 (140 μg/kg sc once-weekly), n=3, non-compartmental, mean ± SD): 55.8 ± 9.6 min | estimated Tmax post-dose (rabbit plasma, W280 (280 μg/kg sc once-weekly)): 45 min
